The structures appear in SMILES notation. Like-named read-outs stand apart in the source and are kept apart here.

Data set [1] has as its system Echinochloa crusgalli. As to the kind of experiment: Table 17 field trial, treatment at the 2 leaf stage: weed control. The note with it: 14 days after application. Type of data set: in vivo. From the text: (§1) Field trial: Treatment at the 2 leaf stage, evaluation 14 days after the application.
Data set [2] relates to Oryza sativa. As to the kind of experiment: Table 17 field trial, treatment at the 2 leaf stage: rice damage. Type of data set: in vivo. The note with it: 14 days after application.
Source text: as §1

The test system of data set [3] is Echinochloa crusgalli. As to the kind of experiment: Table 6 field trial, treatment at the 1-2 leaf stage: weed control. The note with it: 28 days after application. Type of data set: in vivo.
Protocol: (§5) The examples mentioned below were carried out in the greenhouse, and in some instances, in field trials.
Data set [4] concerns Oryza sativa. As to the kind of experiment: Table 6 field trial, treatment at the 1-2 leaf stage: rice damage. Format: in vivo. The note with it: in vivo.
Protocol: as §5
The next data set relates to Cyperus iria. The data set is described as follows: Table 24 field trial, treatment by the pre-emergence method: weed control. Format: in vivo. The note with it: 400 g of ai/ha, 53 days after application. The text has this:
(§2) Field trial: Treatment by the pre-emergence method, evaluation 53 days after the application.

Data set [5] has as its system Oryza sativa. The data set is described as follows: Table 24 field trial, treatment by the pre-emergence method: rice damage. Format: in vivo. The note with it: in vivo.
Source text: as §2

For data set [6], the system named is Echinochloa crusgalli. As to the kind of experiment: Table 7 field trial, treatment at the 1-2 leaf stage: weed control. Format: in vivo. The note with it: 28 days after application.
Protocol: as §5
The subject of the next data set is Marsilea crenata. The description is as above. Format: in vivo. The note with it: 28 days after application.
The subject of data set [7] is Oryza sativa. As to the kind of experiment: Table 7 field trial, treatment at the 1-2 leaf stage: rice damage. Type of data set: in vivo. The note with it: 28 days after application.
Protocol: as §5
Data set [8] deals with Echinochloa crusgalli. The data set is described as follows: Table 8 greenhouse trial, treatment at the 1-2 leaf stage: weed control. Type of data set: in vivo. The note with it: 22 days after application. From the text: (§3) Seeds or rhizome pieces of mono- and dicotyledonous weed plants are placed into sandy loam soil in plastic pots, covered with soil and grown in a greenhouse under good growth conditions (temperature, atmospheric humidity, water supply). Weeds which are encountered in the cultivation of rice are cultivated in pots in which the water level is up to 2 cm over the soil surface. […] The active compound combinations according to the invention, formulated as wettable powders or emulsion concentrates, and, in parallel experiments, the correspondingly formulated individual active compounds are sprayed onto the green parts of the plants at different dosages using an amount of water of 300 to 600 l/ha (converted), and, after about 3 to 4 weeks of the test plants in the greenhouse under optimum growth conditions (temperature, atmospheric humidity, water supply), the effect of the preparations is evaluated visually in comparison to untreated controls. In the case of rice or weeds which are encountered in the cultivation of rice, the active compounds are also added directly to the water for irrigation (application analogous to the so-called granules application) or sprayed onto plants and added to the water for irrigation. The experiments were designed with several, up to five, repetitions. The herbicidal compositions according to the invention also have good herbicidal post-emergence activity against a broad spectrum of economically important weed grasses and broad-leaved weeds.

The subject of data set [9] is Oryza sativa. As to the kind of experiment: Table 8 greenhouse trial, treatment at the 1-2 leaf stage: rice damage. Format: in vivo. The note with it: 22 days after application.
Source text: as §3

For data set [10], the system named is Echinochloa crusgalli. As to the kind of experiment: Table 11 greenhouse trial, treatment at the 1-2 leaf stage: weed control. The note with it: 20 days after application. Type of data set: in vivo. The method, then: (§4) Seeds or rhizome pieces of mono- and dicotyledonous weed plants are placed into sandy loam soil in plastic pots, covered with soil and grown in a greenhouse under good growth conditions (temperature, atmospheric humidity, water supply). Weeds which are encountered in the cultivation of rice are cultivated in pots in which the water level is up to 2 cm over the soil surface. Three weeks after sowing, the test plants are treated at the three-leaf stage. The active compound combinations according to the invention, formulated as wettable powders or emulsion concentrates, and, in parallel experiments, the correspondingly formulated individual active compounds are sprayed onto the green parts of the plants at different dosages using an amount of water of 300 to 600 l/ha (converted), and, after about 3 to 4 weeks of the test plants in the greenhouse under optimum growth conditions (temperature, atmospheric humidity, water supply), the effect of the preparations is evaluated visually in comparison to untreated controls. In the case of rice or weeds which are encountered in the cultivation of rice, the active compounds are also added directly to the water for irrigation (application analogous to the so-called granules application) or sprayed onto plants and added to the water for irrigation. The experiments were designed with several, up to five, repetitions. The herbicidal compositions according to the invention also have good herbicidal post-emergence activity against a broad spectrum of economically important weed grasses and broad-leaved weeds.
Greenhouse trial: Treatment at the 1-2 leaf stage, evaluation 20 days after the application.

Data set [11] has as its system Oryza sativa. The note with it: in vivo. The method, then: as §4, with “The herbicidal compositions according to the invention also have good herbicidal post-emergence activity against a broad spectrum of economically important weed grasses and broad-leaved weeds.” left out

Protocol for Marsilea crenata: as §5

With `CCOC(=O)C(Cl)Cc1cc(-n2nc(C)n(C(F)F)c2=O)c(F)cc1Cl` (racemic) [B38), ethyl (RS)-2-chloro-3-[2-chloro-5-(4-difluoromethyl-4,5-dihydro-3-methyl-5-oxo-1H-1,2,4-,triazol-1-yl)-4-fluorophenyl]propionate], the ECHCG % control is 50% with Echinochloa crusgalli [1] (7.5 g of ai/ha), 52% in the data set on Echinochloa crusgalli [1] (15 g of ai/ha) and 52% with Echinochloa crusgalli [1] (30 g of ai/ha). The ORYSW % damage in the data set with Oryza sativa [2] (7.5 g of ai/ha), with Oryza sativa [2] (15 g of ai/ha) and in the data set on Oryza sativa [2] (30 g of ai/ha) was 0% throughout.

Take `CCCCOCN(C(=O)CCl)c1c(CC)cccc1CC` [B1), N-(butoxymethyl)-2-chloro-N-(2,6-diethylphenyl)acetamide]: the ECHCG % control with Echinochloa crusgalli [3] (300 g of ai/ha) is 81%; in the data set with Echinochloa crusgalli [3] (600 g of ai/ha), 89%. Besides, the ORYSW % damage in the data set with Oryza sativa [4] was determined as 0%.

The compound `CC1(C)CON(Cc2ccccc2Cl)C1=O` [B44), 2-[(2-chlorophenyl)methyl]-4,4-dimethyl-3-isoxazolidinone] yielded a CYPIR % control in the data set on Cyperus iria of 30%. The compound further returned an ORYSW % damage with Oryza sativa [5] of 0%.

For the compound `CCC(=O)Nc1ccc(Cl)c(Cl)c1` [B7), N-(3,4-dichlorophenyl)propanamide], the ECHCG % control in the data set with Echinochloa crusgalli [6] (1000 g of ai/ha) was determined as 79%; in the data set with Echinochloa crusgalli [6] (2000 g of ai/ha) it was 88%; with Echinochloa crusgalli [8] (1250 g of ai/ha) it was 0%; in the data set on Echinochloa crusgalli [8] (2500 g of ai/ha) it was 0%; in the data set with Echinochloa crusgalli [8] (5000 g of ai/ha) it was 10%. Also, the MASCR % control in the data set on Marsilea crenata (1000 g of ai/ha) and in the data set with Marsilea crenata (2000 g of ai/ha) was 0% throughout. In addition, the ORYSW % damage in the data set with Oryza sativa [7] (1000 g of ai/ha), in the data set on Oryza sativa [7] (2000 g of ai/ha), in the data set with Oryza sativa [9] (1250 g of ai/ha), in the data set on Oryza sativa [9] (2500 g of ai/ha) and with Oryza sativa [9] (5000 g of ai/ha) was 0% throughout.

In the case of `COc1cc(OC)nc(NC(=O)NS(=O)(=O)c2c(Cl)nc3ccccn23)n1` [B61), 2-chloro-N-[[(4,6-dimethoxy-2-pyrimidinyl)amino]-carbonyl]imidazo[1,2-a]pyridine-3-sulfonamide], the ECHCG % control is 0% in the data set on Echinochloa crusgalli [10] (8 g of ai/ha), 25% in the data set with Echinochloa crusgalli [10] (15 g of ai/ha), 50% in the data set on Echinochloa crusgalli [10] (30 g of ai/ha) and 60% in the data set on Echinochloa crusgalli [10] (60 g of ai/ha). In addition, in the data set on Oryza sativa [11], the ORYSW % damage was 0%.

(Values after patent US6864217B2, “Herbicidal compositions with substituted phenylsulfonylureas for controlling weeds in rice” (Hoechst Schering AgrEvo GmbH, priority 1998, dated 2005).)
